Values of other authors in US20100215725A1, “PHARMACEUTICAL COMPOSITION CONTAINING IDEBENONE FOR THE TREATMENT OF LIVER DISORDERS” (priority 2009, published 2010).

Test system: rat liver microsomes
Settings: pro-oxidative system NADPH/ADP/Fe3+

SMILES	concentration offering complete protection against lipid peroxidation in microsomes
COC1=C(OC)C(=O)C(CCCCCCCCCCO)=C(C)C1=O [Idebenone, 2,3-dimethoxy-5-methyl-6-(10-hydroxydecyl)-1,4-benzoquinone]	20 µM
COC1=C(OC)C(=O)C(C/C=C(\C)CC/C=C(\C)CC/C=C(\C)CC/C=C(\C)CC/C=C(\C)CC/C=C(\C)CC/C=C(\C)CC/C=C(\C)CC/C=C(\C)CCC=C(C)C)=C(C)C1=O [coenzyme Q-10]	100 µM
